Laboratory results: ChEMBL document CHEMBL1201862, “PubChem BioAssay data set” (2004)
Structures can show the parent of a compound that is named as a salt.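 The compound was tested at five concentrations on cells cultured in 96-well plates, with a 48-hour exposure period. GI50 marks 50% less growth.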 Calls of active or inactive are those of the source. No stated cut-off is given here; in the data, active = GI50 up to about 1.1 µM and inactive = higher.

Legend:
Test in all cases: NCI tumour cell line growth inhibition, 48 h
CCRF-CEM = tested on: CCRF-CEM
DLD-1 = tested on: DLD-1
SK-MEL-2 = tested on: SK-MEL-2
OVCAR-5 = tested on: OVCAR-5
SNB-75 = tested on: SNB-75
NCI-H460 = tested on: NCI-H460
HOP-18 = tested on: HOP-18
SK-MEL-28 = tested on: SK-MEL-28
SNB-19 = tested on: SNB-19
HCT-116 = tested on: HCT-116
XF498 = tested on: XF498
OVCAR-3 = tested on: OVCAR-3
ACHN = tested on: ACHN
RXF 393 = tested on: RXF 393
HCT-15 = tested on: HCT-15
UO-31 = tested on: UO-31
NCI-H23 = tested on: NCI-H23
SF-268 = tested on: SF-268
SR = tested on: SR
Malme-3M = tested on: Malme-3M
DMS-273 = tested on: DMS-273
M19-MEL = tested on: M19-MEL
LXFL 529 = tested on: LXFL 529
COLO 205 = tested on: COLO 205
T47D = tested on: T47D
HOP-92 = tested on: HOP-92
KM-20L2 = tested on: KM-20L2
HOP-62 = tested on: HOP-62
NCI-H522 = tested on: NCI-H522
U-251 = tested on: U-251
SNB-78 = tested on: SNB-78
CAKI-1 = tested on: CAKI-1
EKVX = tested on: EKVX
A498 = tested on: A498
SK-OV-3 = tested on: SK-OV-3
DMS-114 = tested on: DMS-114
786-0 = tested on: 786-0
SN12C = tested on: SN12C
SK-MEL-5 = tested on: SK-MEL-5
SF-295 = tested on: SF-295
HL-60 = tested on: HL-60
OVCAR-8 = tested on: OVCAR-8
HT-29 = tested on: HT-29
RPMI-8226 = tested on: RPMI-8226
UACC-62 = tested on: UACC-62
UACC-257 = tested on: UACC-257
MOLT-4 = tested on: MOLT-4
OVCAR-4 = tested on: OVCAR-4
KM12 = tested on: KM12
TK-10 = tested on: TK-10
SF-539 = tested on: SF-539
SW-620 = tested on: SW-620
IGROV-1 = tested on: IGROV-1
LOX IMVI = tested on: LOX IMVI
HCC 2998 = tested on: HCC 2998
K562 = tested on: K562
M14 = tested on: M14
NCI-H226 = tested on: NCI-H226
A549 = tested on: A549

Measured: GI50

CC[C@]1(O)C[C@H]2CN(CCc3c([nH]c4ccccc34)[C@@](C(=O)OC)(c3cc4c(cc3OC)N(C=O)[C@H]3[C@@](O)(C(=O)OC)[C@H](OC(C)=O)[C@]5(CC)C=CCN6CC[C@]43[C@@H]65)C2)C1 [VINCRISTINE SULFATE]
0.137 µM: HCT-15
active: CCRF-CEM 0.131 µM | DLD-1 0.106 µM | SK-MEL-2 0.132 µM | SNB-75 0.43 µM | NCI-H460 0.105 µM | SNB-19 0.131 µM | HCT-116 0.132 µM | XF498 0.135 µM | OVCAR-3 0.125 µM | ACHN 0.176 µM | RXF 393 0.161 µM | NCI-H23 0.112 µM | SF-268 0.172 µM | SR 0.1 µM | Malme-3M 0.333 µM | DMS-273 0.1 µM | M19-MEL 0.142 µM | LXFL 529 0.1 µM | COLO 205 0.133 µM | HOP-92 0.137 µM | KM-20L2 0.106 µM | HOP-62 0.225 µM | NCI-H522 0.119 µM | U-251 0.132 µM | SNB-78 0.163 µM | CAKI-1 0.14 µM | A498 0.126 µM | SK-OV-3 0.288 µM | DMS-114 0.121 µM
inactive: OVCAR-5 22.2 µM | HOP-18 20.8 µM | SK-MEL-28 1.31 µM | UO-31 2.1 µM | T47D 175 µM | EKVX 2.36 µM

CN(C)c1n/c(=N/c2ncn[nH]2)ss1
> 100 µM: HCT-15
inactive: 786-0 > 100 µM | CCRF-CEM > 100 µM | DLD-1 > 100 µM | SN12C > 100 µM | SK-MEL-2 > 100 µM | OVCAR-5 > 100 µM | SK-MEL-5 > 100 µM | SF-295 > 100 µM | HL-60 > 100 µM | SNB-75 > 100 µM | OVCAR-8 > 100 µM | NCI-H460 > 100 µM | HT-29 > 100 µM | HOP-18 > 100 µM | SK-MEL-28 > 100 µM | RPMI-8226 > 100 µM | SNB-19 > 100 µM | HCT-116 > 100 µM | XF498 > 100 µM | UACC-62 > 100 µM | UACC-257 > 100 µM | MOLT-4 > 100 µM | ACHN > 100 µM | RXF 393 > 100 µM | UO-31 > 100 µM | NCI-H23 > 100 µM | SF-268 > 100 µM | OVCAR-4 > 100 µM | KM12 > 100 µM | SR > 100 µM | Malme-3M > 100 µM | DMS-273 > 100 µM | M19-MEL > 100 µM | LXFL 529 > 100 µM | TK-10 > 100 µM | SF-539 > 100 µM | HOP-92 > 100 µM | KM-20L2 > 100 µM | HOP-62 > 100 µM | NCI-H522 > 100 µM | SW-620 > 100 µM | IGROV-1 > 100 µM | LOX IMVI > 100 µM | HCC 2998 > 100 µM | U-251 > 100 µM | K562 > 100 µM | M14 > 100 µM | SNB-78 > 100 µM | NCI-H226 > 100 µM | A549 > 100 µM | CAKI-1 > 100 µM | EKVX > 100 µM | A498 > 100 µM | SK-OV-3 > 100 µM | DMS-114 > 100 µM

Cc1cccc(C(C)(C)C)c1NC(=O)C(=O)C(c1cnc2ccccc2n1)[N+](=O)[O-] (centres undefined)
> 100 µM: HCT-15
inactive: 786-0 > 100 µM | CCRF-CEM 32.1 µM | DLD-1 > 100 µM | SN12C > 100 µM | SK-MEL-2 > 100 µM | OVCAR-5 > 100 µM | SK-MEL-5 > 100 µM | SF-295 > 100 µM | HL-60 65.3 µM | SNB-75 > 100 µM | OVCAR-8 > 100 µM | NCI-H460 62.2 µM | HT-29 > 100 µM | HOP-18 > 100 µM | SK-MEL-28 > 100 µM | RPMI-8226 60.3 µM | SNB-19 > 100 µM | HCT-116 > 100 µM | XF498 > 100 µM | UACC-62 > 100 µM | UACC-257 > 100 µM | MOLT-4 58.1 µM | ACHN > 100 µM | RXF 393 > 100 µM | UO-31 > 100 µM | NCI-H23 > 100 µM | SF-268 > 100 µM | OVCAR-4 > 100 µM | KM12 > 100 µM | SR > 100 µM | Malme-3M > 100 µM | DMS-273 > 100 µM | M19-MEL > 100 µM | LXFL 529 > 100 µM | COLO 205 > 100 µM | TK-10 > 100 µM | SF-539 > 100 µM | HOP-92 > 100 µM | KM-20L2 > 100 µM | HOP-62 > 100 µM | NCI-H522 38.5 µM | SW-620 > 100 µM | IGROV-1 > 100 µM | LOX IMVI > 100 µM | HCC 2998 > 100 µM | U-251 > 100 µM | K562 > 100 µM | M14 > 100 µM | SNB-78 > 100 µM | NCI-H226 > 100 µM | A549 > 100 µM | CAKI-1 > 100 µM | EKVX > 100 µM | A498 > 100 µM | SK-OV-3 > 100 µM | DMS-114 > 100 µM
